Measurements from patent US9587471B2, “Controlling bioavailability of nutrient additions in subsurface formations” (E I DU PONT DE NEMOURS AND COMPANY, priority 2008, dated 2017).
Structures can show the parent of a compound that is named as a salt.

Key:
[1] = Decline (hydrolysis) of ethyl formate in injection water; assay type: physicochemical; details: in about four days, anaerobic, approximately 25° C., 0.2% added
Description: The growth delay allows deeper penetration into the oil well formation and more widespread MEOR activation.
(§1) Injection water was amended with sodium nitrate as electron acceptor plus a growth substrates. In addition 0.2% ethyl formate was added to the inhibited treatment. The injection water was incubated anaerobically at approximately 25° C. under an atmosphere of 80% nitrogen and 20% carbon dioxide, reflecting typical growth conditions in the North Slope oil well formations. Growth of the native populations, nitrate concentrations and ethyl formate concentrations were monitored over two weeks.

[2] = system: Pseudomonas stutzeri strain LH4:15 (ATCC PTA-8823); experiment: Anaerobic growth and survival: biocidal versus biostatic inhibition; assay type: cell-based; details: for change in Log cell number: day 0 vs day 7, anaerobic; for Final anaerobic vial OD: starting OD600 = 0.05
Description: In this invention, the anaerobic growth and survival was tested in 20 ml crimp-capped anaerobic vials, using a complete nutrient medium of the following composition: Na2HPO4.7H2O, 1.4 g/L, KH2PO4, 0.69 g/L, NH4Cl, 0.5 g/L, MgSO4.7H2O, 0.1/L g, SL-10 trace metals, 10 ml, NaCl, 7.5 g/L, NaHCO3, 7.2 g/L, sodium nitrate, 12 g/L, Na lactate, 7 g/L, yeast extract, 10 mg/L, pH 7.3-7.8.
The anaerobic growth and survival was tested as outlined above. […] Vials were inoculated using an overnight aerobic culture of Pseudomonas stutzeri strain LH4:15 (ATCC PTA-8823) in Luria Bertani medium (LB, Mediatech Inc., Herndon, Va.,) at a final OD600 of 0.05. Within 2 hours of inoculation, serial dilutions from each treatment vial were made into aerobic LB medium to determine the cell numbers at Day 0. After approximately 24 hours cell numbers were estimated by noting the highest positive dilution based on the presence or absence of turbidity in dilutions of 10^−1 to 10^−11 in the serial dilution plates. Cell numbers on Day 0 and Day 7 were measured to obtain a survival estimate during inhibitor exposure.

[3] = system: native anaerobic population in the injection water from the North Slope of Alaska; experiment: Growth and nitrate+nitrite consumption of native populations in injection water; assay type: cell-based
Description: as §1

[4] = system: Pseudomonas stutzeri strain LH4:15, ATCC PTA-8823; experiment: Aerobic growth response (turbidity) to varying concentrations of potential microbial nutrients; assay type: cell-based
Description: (§2) Typically cells were grown at a temperature in the range of about 25° C. to about 40° C. in an appropriate medium.
Additional potential microbial nutrients were added at various concentrations as outlined in Table 1. Growth was monitored visually with positive growth indicated by moderate to heavy turbidity.

[5] = system: Pseudomonas stutzeri strain LH4:15 (ATCC PTA-8823); experiment: Aerobic growth response (turbidity) to varying concentrations of industrial preservatives; assay type: cell-based; details: for concentration that must be reached before inhibition of microbial growth ends: stated 'as illustrated in Example 2';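 on growth (turbidity): single plus means slight turbidity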
Description: as §2
Pseudomonas stutzeri strain LH4:15 (ATCC PTA-8823) was grown as outlined in Example 1. Various preservatives commonly used in the food, cosmetic, and water treatment industries were tested for their inhibitory effect at various concentrations (Table 2). Growth was monitored visually and positive growth was indicated by moderate to heavy turbidity.

[6] = Partition coefficient in an oil/water system; assay type: physicochemical
Description: In this Example a contribution to inhibitor dissipation made by adsorption of the inhibitor into the oil phase may be observed. For example, nitrate as a nitrogen source and electron acceptor and glucose as a growth substrate, each at 25 g/L concentration, may be added in combination to the injection water stream. In addition, benzalkonium chloride may be added to the inhibited nutrient composition. The composition may be pumped into the oil well formation for 5 hours. The industrial biocide inhibits growth of microbial populations in the oil well formation independent of the added nutrient concentrations. As illustrated in Example 2 until the benzalkonium chloride reaches a concentration of <0.1 g/L, microbial growth is inhibited. Using physical parameters common in oil well formations found in unconsolidated sandstone regions of the North Slope, dispersion modeling determines that it will take approximately fourteen days for flow dispersion to dilute benzalkonium chloride to approximately <0.1 g/L. In addition, it may be empirically determined, through laboratory experimentation, that the partition coefficient for benzalkonium chloride in an oil/water system is approximately 10. Therefore, rather than adding benzalkonium chloride at 2% concentration based on dispersion modeling, it is added at a 10% initial concentration to counter act losses due to adsorption. […]

Compound: CCOC=O [Ethyl formate]
- decline of ethyl formate concentration [1]: 10 fold
- change in Log cell number ([2]; 5 g/L): −2
- Final anaerobic vial OD ([2]; 5 g/L): 0.02
- change in Log cell number ([2]; 10 g/L): −6
- Final anaerobic vial OD ([2]; 10 g/L): 0.01
- change in Log cell number ([2]; 25 g/L): −6
- Final anaerobic vial OD ([2]; 25 g/L): 0.005
- change in Log cell number ([2]; 50 g/L): Dead
- Final anaerobic vial OD ([2]; 50 g/L): 0.05
- change in Log cell number ([2]; 80 g/L): Dead
- Final anaerobic vial OD ([2]; 80 g/L): 0.06
- delay of maximum growth ([3]; 0.2% concentration): four
- effect on the maximum population in words ([3]; 0.2% concentration): longer maintenance of the maximum population
- mean nitrate+nitrite loss rate ([3]; 0.2% ethyl formate): 190 ppm/day
- consumption of electron acceptors nitrate+nitrite slower in the inhibited treatment ([3]; 0.2% ethyl formate vs no added ethyl formate): 31%
- Growth response (turbidity) ([4]; 0.1 g/L, 24 hours of incubation): ++
- Growth response (turbidity) ([4]; 0.1 g/L, 48 hours of incubation): ++
- Growth response (turbidity) ([4]; 0.1 g/L, 120 hours of incubation): ++
- Growth response (turbidity) ([4]; 0.5 g/L, 24 hours of incubation): ++
- Growth response (turbidity) ([4]; 0.5 g/L, 48 hours of incubation): ++
- Growth response (turbidity) ([4]; 0.5 g/L, 120 hours of incubation): ++
- Growth response (turbidity) ([4]; 1 g/L, 24 hours of incubation): ++
- Growth response (turbidity) ([4]; 1 g/L, 48 hours of incubation): ++
- Growth response (turbidity) ([4]; 1 g/L, 120 hours of incubation): ++
- Growth response (turbidity) ([4]; 5 g/L, 24 hours of incubation): +
- Growth response (turbidity) ([4]; 5 g/L, 48 hours of incubation): ++
- Growth response (turbidity) ([4]; 5 g/L, 120 hours of incubation): ++
- Growth response (turbidity) ([4]; 25 g/L, 24 hours of incubation): −
- Growth response (turbidity) ([4]; 25 g/L, 48 hours of incubation): −
- Growth response (turbidity) ([4]; 25 g/L, 120 hours of incubation): −
- Growth response (turbidity) ([4]; 50 g/L, 24 hours of incubation): −
- Growth response (turbidity) ([4]; 50 g/L, 48 hours of incubation): −
- Growth response (turbidity) ([4]; 50 g/L, 120 hours of incubation): −

Compound: COC(=O)c1ccc(O)cc1 [Methylparaben]
- growth (turbidity) ([5]; 0.01 g/L): ++
- growth (turbidity) ([5]; 0.05 g/L): ++
- growth (turbidity) ([5]; 0.1 g/L): ++
- growth (turbidity) ([5]; 0.5 g/L): +
- growth (turbidity) ([5]; 1 g/L): −
- growth (turbidity) ([5]; 2.5 g/L): −
- change in Log cell number ([2]; 0.5 g/L): 0
- Final anaerobic vial OD ([2]; 0.5 g/L): 0.09
- change in Log cell number ([2]; 0.6 g/L): 0
- Final anaerobic vial OD ([2]; 0.6 g/L): 0.05
- change in Log cell number ([2]; 0.8 g/L): 1
- Final anaerobic vial OD ([2]; 0.8 g/L): 0.05
- change in Log cell number ([2]; 1 g/L): −1
- Final anaerobic vial OD ([2]; 1 g/L): 0.04
- change in Log cell number ([2]; 2.5 g/L): −2
- Final anaerobic vial OD ([2]; 2.5 g/L): 0.01
- effectiveness of the inhibitor in words ([2]; judged by OD600 and cell killing, Table 3): showed this desirable property at the lowest efficacious concentrations

Compound: CN(C)C(=S)[S-].[Na+] [sodium dithiodimethyl carbamate]
- growth (turbidity) ([5]; 0.1 g/L): ++
- growth (turbidity) ([5]; 0.2 g/L): ++
- growth (turbidity) ([5]; 0.3 g/L): −
- growth (turbidity) ([5]; 0.5 g/L): −
- growth (turbidity) ([5]; 0.8 g/L): −
- growth (turbidity) ([5]; 1 g/L): −
- concentration that must be reached before inhibition of microbial growth ends [5]: < 0.1 g/L

Compound: Cc1cc(O)ccc1Cl [4-chloro-3-metyhl phenol]
- growth (turbidity) ([5]; 0.1 g/L): −
- growth (turbidity) ([5]; 0.5 g/L): −
- growth (turbidity) ([5]; 1 g/L): −

Compound: OCCOc1ccccc1 [2-phenoxy-ethan-1-ol]
- growth (turbidity) ([5]; 1 g/L): ++
- growth (turbidity) ([5]; 2 g/L): ++
- growth (turbidity) ([5]; 3 g/L): ++
- growth (turbidity) ([5]; 4 g/L): −

Compound: Oc1ccccc1 [phenol]
- growth (turbidity) ([5]; 0.01 g/L): ++
- growth (turbidity) ([5]; 0.05 g/L): ++
- growth (turbidity) ([5]; 0.1 g/L): ++
- growth (turbidity) ([5]; 0.5 g/L): ++
- growth (turbidity) ([5]; 1 g/L): ++
- growth (turbidity) ([5]; 10 g/L): −
- growth (turbidity) ([5]; 50 g/L): −

Compound: Benzalkonium chloride
- growth (turbidity) ([5]; 0.0001 g/L): ++
- growth (turbidity) ([5]; 0.001 g/L): ++
- growth (turbidity) ([5]; 0.005 g/L): ++
- growth (turbidity) ([5]; 0.01 g/L): ++
- growth (turbidity) ([5]; 0.1 g/L): −
- growth (turbidity) ([5]; 0.5 g/L): −
- growth (turbidity) ([5]; 1 g/L): −
- concentration that must be reached before inhibition of microbial growth ends [5]: < 0.1 g/L
- partition coefficient [6]: approximately 10
- change in Log cell number ([2]; 0.01 g/L): 0
- Final anaerobic vial OD ([2]; 0.01 g/L): 0.12
- change in Log cell number ([2]; 0.04 g/L): 0
- Final anaerobic vial OD ([2]; 0.04 g/L): 0.01
- change in Log cell number ([2]; 0.08 g/L): −4
- Final anaerobic vial OD ([2]; 0.08 g/L): 0.02
- change in Log cell number ([2]; 0.1 g/L): Dead
- Final anaerobic vial OD ([2]; 0.1 g/L): 0.02
- change in Log cell number ([2]; 0.5 g/L): Dead
- Final anaerobic vial OD ([2]; 0.5 g/L): 0.06
- change in Log cell number ([2]; 1 g/L): Dead
- Final anaerobic vial OD ([2]; 1 g/L): 0.32
- concentration that killed the cells on Day 0 ([2]; anaerobic vials): ≥ 0.1 g/L
